Legend:
ABUTH [1] = assay: Pre-emergence herbicidal action against ABUTH; type: in vivo, Abutilon theophrasti
Outline: (§1)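 Sandy loam pots, seeds covered with soil, then surface-treated with WP or EC formulations at 600–800 l/ha water plus 0.2% wetting agent. Greenhouse, 3 weeks. Percent damage vs untreated controls.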

ALOMY = assay: Pre-emergence herbicidal action against ALOMY; type: in vivo, Alopecurus myosuroides; details: 80 g/ha, pre-emergence, scored visually after 3 weeks vs untreated controls (100% = plants have died, 0% = like control plants)
Outline: as §1

AMARE [2] = assay: Pre-emergence herbicidal action against AMARE; type: in vivo, Amaranthus retroflexus
Outline: as §1

AVEFA [3] = assay: Pre-emergence herbicidal action against AVEFA; type: in vivo, Avena fatua; details: 80 g/ha, pre-emergence
Outline: as §1

ECHCG [4] = assay: Pre-emergence herbicidal action against ECHCG; type: in vivo, Echinochloa crus-galli
Outline: as §1

HORMU = assay: Pre-emergence herbicidal action against HORMU; type: in vivo, Hordeum murinum; details: pre-emergence
Outline: as §1

MATIN = assay: Pre-emergence herbicidal action against MATIN; type: in vivo, Matricaria inodora
Outline: as §1

POLCO [5] = assay: Pre-emergence herbicidal action against POLCO; type: in vivo, Polygonum convolvulus; details: dosage 80 g/ha
Outline: as §1

SETVI [6] = assay: Pre-emergence herbicidal action against SETVI; type: in vivo, Setaria viridis
Outline: as §1

STEME [7] = assay: Pre-emergence herbicidal action against STEME; type: in vivo, Stellaria media
Outline: as §1

VIOTR [8] = assay: Pre-emergence herbicidal action against VIOTR; type: in vivo, Viola tricolor
Outline: as §1

DIGSA [9] = assay: Pre-emergence herbicidal action against DIGSA; type: in vivo, Digitaria sanguinalis
Outline: as §1

ABUTH [10] = assay: Post-emergence herbicidal action against ABUTH; type: in vivo, Abutilon theophrasti; details: visual assessment about 3 weeks after treatment vs untreated controls
Outline: (§2)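 Herbicidal action is a visual percentage rating (0% = as untreated control, 100% = plants dead) made roughly 3 weeks after treatment. Plants were grown in sandy loam in the greenhouse and treated at the one-leaf stage, 2 to 3 weeks post-sowing. Treatment was a foliar spray of wettable-powder or emulsion-concentrate formulations at 600 to 800 l/ha water plus 0.2% wetting agent.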

AMARE [11] = assay: Post-emergence herbicidal action against AMARE; type: in vivo, Amaranthus retroflexus; details: visual assessment about 3 weeks after treatment, 100% = plants have died, 0% = like control plants
Outline: as §2

ECHCG [12] = assay: Post-emergence herbicidal action against ECHCG; type: in vivo, Echinochloa crus-galli
Outline: as §2

PHBPU = assay: Post-emergence herbicidal action against PHBPU; type: in vivo, Pharbitis purpurea; details: dosage 20 g/ha
Outline: as §2

POLCO [13] = assay: Post-emergence herbicidal action against POLCO; type: in vivo, Polygonum convolvulus
Outline: as §2

SETVI [14] = assay: Post-emergence herbicidal action against SETVI; type: in vivo, Setaria viridis; details: dosage 20 g/ha
Outline: as §2

STEME [15] = assay: Post-emergence herbicidal action against STEME; type: in vivo, Stellaria media
Outline: as §2

VIOTR [16] = assay: Post-emergence herbicidal action against VIOTR; type: in vivo, Viola tricolor; details: 20 g/ha
Outline: as §2

DIGSA [17] = assay: Post-emergence herbicidal action against DIGSA; type: in vivo, Digitaria sanguinalis
Outline: as §2

AVEFA [18] = assay: Post-emergence herbicidal action against AVEFA; type: in vivo, Avena fatua; details: Avena fatua, 504 h, visual assessment about 3 weeks after treatment, 100% = plants have died, 0% = like control plants
Outline: as §2

[19] = 80 g/ha, scored visually after 3 weeks vs untreated controls (100% = plants have died, 0% = like control plants)

CCNC(=O)c1c(C(F)(F)F)ccc(C(=O)Nc2nnc(C)o2)c1C [Example 6-26]
100%: Pre-emergence action against ABUTH (herbicidal activity) (ABUTH [1]; [19]) | Pre-emergence action against ABUTH (herbicidal activity in percent) (ABUTH [1]; dosage 20 g/ha, scored visually after 3 weeks vs untreated controls, 100% = plants have died, 0% = like control plants) | Pre-emergence action against AMARE in % (AMARE [2]; 20 g/ha, scored visually after 3 weeks vs untreated controls, 100% = plants have died, 0% = like control plants) | Pre-emergence action against AMARE in % (AMARE [2]; [19]) | Pre-emergence action against ECHCG in % (ECHCG [4]; 80 g/ha) | Pre-emergence action against POLCO in % (POLCO [5]) | Pre-emergence action against SETVI in % (SETVI [6]; dosage 80 g/ha) | Pre-emergence action against STEME in % (STEME [7]; dosage 80 g/ha) | Pre-emergence action against VIOTR in % (VIOTR [8]; dosage 80 g/ha) | Pre-emergence action against DIGSA in % (DIGSA [9]; dosage 20 g/ha) | Pre-emergence action against DIGSA in % (DIGSA [9]; dosage 80 g/ha) | Post-emergence action at 20 g/ha against AMARE in % (AMARE [11]; 20 g/ha) | Post-emergence action against VIOTR in % (VIOTR [16])
80%: Pre-emergence action against ALOMY (herbicidal activity) (ALOMY) | Pre-emergence action against AVEFA in % (AVEFA [3]) | Pre-emergence action against HORMU in % (HORMU; 80 g/ha) | Pre-emergence action against MATIN in % (MATIN; dosage 20 g/ha) | Pre-emergence action against STEME in % (STEME [7]; dosage 20 g/ha) | Post-emergence action against ECHCG in % (ECHCG [12]; dosage 5 g/ha) | Post-emergence action against PHBPU in % (PHBPU) | Post-emergence action against POLCO in % (POLCO [13]; dosage 20 g/ha) | Post-emergence action against SETVI in % (SETVI [14]) | Post-emergence action against STEME in % (STEME [15]; 20 g/ha)
90%: Pre-emergence action against MATIN in % (MATIN; dosage 80 g/ha) | Post-emergence action against ABUTH in % (ABUTH [10]; dosage 5 g/ha) | Post-emergence action against ABUTH in % (ABUTH [10]; dosage 20 g/ha) | Post-emergence action against ECHCG in % (ECHCG [12]; dosage 20 g/ha) | Post-emergence action against DIGSA in % (DIGSA [17]; 5 g/ha) | Post-emergence action against DIGSA (DIGSA [17]; 20 g/ha)

CNC(=O)c1c(C(F)(F)F)ccc(C(=O)Nc2nnc(C)o2)c1SC [Example 6-58]
90%: pest or weed control at 320 g/ha (HORMU; Hordeum murinum, 504 h, 320 g/ha) | pest or weed control at 80 g/ha (STEME [7]; Stellaria media, 504 h, dosage 80 g/ha) | pest or weed control at 320 g/ha (STEME [7]; Stellaria media, 504 h, dosage 320 g/ha) | pest or weed control at 320 g/ha (VIOTR [8]; Viola tricolor, 504 h, dosage 320 g/ha) | pest or weed control at 80 g/ha (AMARE [11]; Amaranthus retroflexus, 504 h, 80 g/ha) | pest or weed control at 80 g/ha (AVEFA [18]; 80 g/ha) | pest or weed control at 20 g/ha (ECHCG [12]; Echinochloa crus-galli, 504 h, dosage 20 g/ha) | pest or weed control at 80 g/ha (ECHCG [12]; Echinochloa crus-galli, 504 h, dosage 80 g/ha) | pest or weed control at 80 g/ha (DIGSA [17]; Digitaria sanguinalis, 504 h, 80 g/ha)
100%: pest or weed control at 80 g/ha (ABUTH [1]; Abutilon theophrasti, 504 h, 80 g/ha, scored visually after 3 weeks vs untreated controls (100% = plants have died, 0% = like control plants)) | pest or weed control at 320 g/ha (ABUTH [1]; Abutilon theophrasti, 504 h, Dosage: 320 g/ha, scored visually after 3 weeks, 100% = plants have died, 0% = like control plants) | pest or weed control at 80 g/ha (AMARE [2]; Amaranthus retroflexus, 504 h, 80 g/ha, scored visually after 3 weeks vs untreated controls, 100% = plants have died, 0% = like control plants) | pest or weed control at 320 g/ha (AMARE [2]; Amaranthus retroflexus, 504 h, 320 g/ha, scored visually after 3 weeks, 100% = plants have died, 0% = like control plants) | pest or weed control at 320 g/ha (ECHCG [4]; Echinochloa crus-galli, 504 h, 320 g/ha) | pest or weed control at 320 g/ha (MATIN; Tripleurospermum inodorum, 504 h, dosage 320 g/ha) | pest or weed control at 80 g/ha (SETVI [6]; Setaria viridis, 504 h, dosage 80 g/ha) | pest or weed control at 320 g/ha (SETVI [6]; Setaria viridis, 504 h, dosage 320 g/ha) | pest or weed control at 80 g/ha (DIGSA [9]; Digitaria sanguinalis, 504 h, dosage 80 g/ha) | pest or weed control at 320 g/ha (DIGSA [9]; Digitaria sanguinalis, 504 h, dosage 320 g/ha) | pest or weed control at 80 g/ha (POLCO [13]; Fallopia convolvulus, 504 h, dosage 80 g/ha)
80%: pest or weed control at 80 g/ha (MATIN; Tripleurospermum inodorum, 504 h, dosage 80 g/ha) | pest or weed control at 20 g/ha (ABUTH [10]; Abutilon theophrasti, 504 h, dosage 20 g/ha) | pest or weed control at 80 g/ha (ABUTH [10]; Abutilon theophrasti, 504 h, dosage 80 g/ha) | pest or weed control at 20 g/ha (AVEFA [18]; 20 g/ha) | pest or weed control at 20 g/ha (STEME [15]; Stellaria media, 504 h, 20 g/ha) | pest or weed control at 80 g/ha (STEME [15]; Stellaria media, 504 h, 80 g/ha) | pest or weed control at 20 g/ha (DIGSA [17]; Digitaria sanguinalis, 504 h, 20 g/ha)

Reference: US12655116B2, “Substituted isophthalic acid diamides” (Bayer Aktiengesellschaft, priority 2020, dated 2026)
